What all share (assay type): functional
In assay [1] the test system is Escherichia coli. As to the kind of experiment: Antibacterial activity against Escherichia coli ATCC 25922 at 140 ug/disk after 18 to 24 hr by disk diffusion method. The conditions noted are these: read-out: DIZ. For orientation: In agar diffusion tests the substance spreads into inoculated agar from a disc or well.
In assay [2] the test system is Klebsiella pneumoniae. As to the kind of experiment: Antibacterial activity against Klebsiella pneumoniae ATCC 13883 at 140 ug/disk after 18 to 24 hr by disk diffusion method. To be noted: read-out: DIZ.
The subject of assay [3] is Pseudomonas fluorescens. Kind of assay: Antibacterial activity against Pseudomonas fluorescens ATCC 49838 at 140 ug/disk after 18 to 24 hr by disk diffusion method. To be noted: read-out: DIZ.
Assay [4] has as its system Klebsiella aerogenes. Kind of assay: Antibacterial activity against Enterobacter aerogenes ATCC 13048 at 140 ug/disk after 18 to 24 hr by disk diffusion method. The conditions noted are these: read-out: DIZ.
The subject of assay [5] is Staphylococcus epidermidis. As to the kind of experiment: Antibacterial activity against Staphylococcus epidermidis ATCC 12228 at 140 ug/disk after 18 to 24 hr by disk diffusion method. To be noted: read-out: DIZ.
Assay [6] relates to Bacillus subtilis. As to the kind of experiment: Antibacterial activity against Bacillus subtilis ATCC 6633 at 140 ug/disk after 18 to 24 hr by disk diffusion method. To be noted: read-out: DIZ.
Assay [7] deals with Enterococcus faecalis. As to the kind of experiment: Antibacterial activity against Enterococcus faecalis ATCC 29212 at 140 ug/disk after 18 to 24 hr by disk diffusion method. The conditions noted are these: read-out: DIZ.
Assay [8] deals with Bacillus cereus. As to the kind of experiment: Antibacterial activity against Bacillus cereus ATCC 11778 at 140 ug/disk after 18 to 24 hr by disk diffusion method. To be noted: read-out: DIZ.
In assay [9] the test system is Staphylococcus aureus. As to the kind of experiment: Antibacterial activity against Staphylococcus aureus ATCC 25923 at 140 ug/disc after 18 to 24 hr by disk diffusion method. The conditions noted are these: read-out: DIZ.
Assay [10] has as its system Candida albicans. As to the kind of experiment: Antifungal activity against Candida albicans ATCC 90028 after 18 to 24 hr by broth microdilution method. Background: Broth dilution looks for growth in wells or tubes with falling amounts of substance.
For assay [11], the system named is Pseudomonas aeruginosa. Kind of assay: Antibacterial activity against Pseudomonas aeruginosa ATCC 27853 after 18 to 24 hr by broth microdilution method.
The test system of assay [12] is Escherichia coli. As to the kind of experiment: Antibacterial activity against Escherichia coli ATCC 25922 after 18 to 24 hr by broth microdilution method.
Assay [13] relates to Klebsiella pneumoniae. As to the kind of experiment: Antibacterial activity against Klebsiella pneumoniae ATCC 13883 after 18 to 24 hr by broth microdilution method.
The subject of assay [14] is Pseudomonas fluorescens. Kind of assay: Antibacterial activity against Pseudomonas fluorescens ATCC 49838 after 18 to 24 hr by broth microdilution method.
Assay [15] relates to Klebsiella aerogenes. As to the kind of experiment: Antibacterial activity against Enterobacter aerogenes ATCC 13048 after 18 to 24 hr by broth microdilution method.
The subject of assay [16] is Staphylococcus epidermidis. As to the kind of experiment: Antibacterial activity against Staphylococcus epidermidis ATCC 12228 after 18 to 24 hr by broth microdilution method.
The test system of assay [17] is Enterococcus faecalis. Kind of assay: Antibacterial activity against Enterococcus faecalis ATCC 29212 after 18 to 24 hr by broth microdilution method.
The test system of assay [18] is Bacillus cereus. Kind of assay: Antibacterial activity against Bacillus cereus ATCC 11778 after 18 to 24 hr by broth microdilution method.
In assay [19] the test system is Staphylococcus aureus. Kind of assay: Antibacterial activity against Staphylococcus aureus ATCC 25923 after 18 to 24 hr by broth microdilution method.
For assay [20], the system named is Candida albicans. Kind of assay: Antifungal activity against Candida albicans ATCC 90028 at 140 ug/disk after 18 to 24 hr by disk diffusion method. To be noted: read-out: DIZ.
Assay [21] has as its system Pseudomonas aeruginosa. Kind of assay: Antibacterial activity against Pseudomonas aeruginosa ATCC 27853 at 140 ug/disk after 18 to 24 hr by disk diffusion method. To be noted: read-out: DIZ.
Assay [22] deals with Bacillus subtilis. As to the kind of experiment: Antibacterial activity against Bacillus subtilis ATCC 6633 after 18 to 24 hr by broth microdilution method.

≈ marks a conversion by molar mass, not a printed value.

For the compound `NCC(O)CNS(=O)(=O)c1ccccc1` (stereo not drawn), the zone of inhibition at 140 µg/disc (in the assay with Escherichia coli [1]; with Klebsiella pneumoniae [2]; in the assay with Pseudomonas fluorescens [3]; in the assay with Klebsiella aerogenes [4]; in [5]; in the assay with Bacillus subtilis [6]) was 0 mm in each case. In addition, the zone of inhibition at 140 µg/disc in the assay on Enterococcus faecalis [7], in the assay with Bacillus cereus [8], in the assay with Staphylococcus aureus [9], with Candida albicans [20] and with Pseudomonas aeruginosa [21] was 0 mm throughout. In addition, the MIC – broadly, the least concentration at which growth counts as inhibited – with Candida albicans [10] was 1000 µg/mL (≈ 4.34 mM); against Pseudomonas aeruginosa [11], 1000 µg/mL (≈ 4.34 mM); in the assay on Escherichia coli [12], 1000 µg/mL (≈ 4.34 mM); in the assay on Klebsiella pneumoniae [13] it was greater than 2000 µg/mL; in the assay on Pseudomonas fluorescens [14] it was 1000 µg/mL (≈ 4.34 mM); in the assay with Klebsiella aerogenes [15], 1000 µg/mL (≈ 4.34 mM). Further, the MIC (in [16]; in the assay with Enterococcus faecalis [17]; in the assay with Bacillus cereus [18]; in the assay on Staphylococcus aureus [19]; against Bacillus subtilis [22]) was greater than 2000 µg/mL each time.
In the case of `C/C(=N\N(C)S(=O)(=O)c1ccccc1)c1ccccc1O`, the zone of inhibition at 140 µg/disc in the assay on Escherichia coli [1] is 11 mm; in the assay on Klebsiella pneumoniae [2] it was 6 mm; in the assay on Pseudomonas fluorescens [3], 11 mm; with Klebsiella aerogenes [4], 5 mm; in assay [5], 12 mm; in the assay with Bacillus subtilis [6], 9 mm. For the same compound, the zone of inhibition at 140 µg/disc turned out to be 9 mm in the assay on Enterococcus faecalis [7]; 10 mm with Bacillus cereus [8]; 10 mm in the assay with Staphylococcus aureus [9]; 12 mm in the assay with Candida albicans [20]; 5 mm in the assay on Pseudomonas aeruginosa [21]. Moreover, the minimal inhibitory concentration (MIC) was found to be 500 µg/mL (≈ 1.64 mM) in the assay with Candida albicans [10]; 1000 µg/mL (≈ 3.29 mM) with Pseudomonas aeruginosa [11]; 1000 µg/mL (≈ 3.29 mM) against Escherichia coli [12]; 1000 µg/mL (≈ 3.29 mM) in the assay with Klebsiella pneumoniae [13]; 1000 µg/mL (≈ 3.29 mM) against Pseudomonas fluorescens [14]; 1000 µg/mL (≈ 3.29 mM) with Klebsiella aerogenes [15]. The MIC in assay [16] was 500 µg/mL (≈ 1.64 mM); in the assay with Enterococcus faecalis [17], 1000 µg/mL (≈ 3.29 mM); with Bacillus cereus [18] it was 500 µg/mL (≈ 1.64 mM); against Staphylococcus aureus [19], 500 µg/mL (≈ 1.64 mM); against Bacillus subtilis [22], 500 µg/mL (≈ 1.64 mM).
`CN(/N=C/c1c(O)ccc2ccccc12)S(=O)(=O)c1ccccc1`: the zone of inhibition at 140 µg/disc was 17 mm in the assay on Escherichia coli [1]; 23 mm in the assay with Klebsiella pneumoniae [2]; 26 mm in the assay with Pseudomonas fluorescens [3]; 18 mm in the assay on Klebsiella aerogenes [4]; 16 mm in [5]; 28 mm in the assay on Bacillus subtilis [6]. In addition, the zone of inhibition at 140 µg/disc with Enterococcus faecalis [7] was found to be 17 mm; in the assay with Bacillus cereus [8], 26 mm; in the assay on Staphylococcus aureus [9] it was 19 mm; with Candida albicans [20], 16 mm; in the assay on Pseudomonas aeruginosa [21], 25 mm. Besides, the MIC was 500 µg/mL (≈ 1.47 mM) against Candida albicans [10]; 250 µg/mL (≈ 0.734 mM) against Pseudomonas aeruginosa [11]; 500 µg/mL (≈ 1.47 mM) with Escherichia coli [12]; 250 µg/mL (≈ 0.734 mM) against Klebsiella pneumoniae [13]; 250 µg/mL (≈ 0.734 mM) in the assay with Pseudomonas fluorescens [14]; 500 µg/mL (≈ 1.47 mM) in the assay on Klebsiella aerogenes [15]. In addition, the MIC in [16] is 500 µg/mL (≈ 1.47 mM); against Enterococcus faecalis [17], 500 µg/mL (≈ 1.47 mM); against Bacillus cereus [18], 250 µg/mL (≈ 0.734 mM); in the assay on Staphylococcus aureus [19] it was 500 µg/mL (≈ 1.47 mM); against Bacillus subtilis [22], 250 µg/mL (≈ 0.734 mM).
On to `O=S(=O)(NCCO)c1ccccc1`, for which the zone of inhibition at 140 µg/disc (with Escherichia coli [1]; with Klebsiella pneumoniae [2]; in the assay on Pseudomonas fluorescens [3]; with Klebsiella aerogenes [4]; in assay [5]; with Bacillus subtilis [6]) was 0 mm in each case. Moreover, the zone of inhibition at 140 µg/disc in the assay on Enterococcus faecalis [7], in the assay with Bacillus cereus [8], in the assay on Staphylococcus aureus [9], with Candida albicans [20] and in the assay with Pseudomonas aeruginosa [21] was 0 mm each time. Also, the minimal inhibitory concentration (MIC) against Candida albicans [10], in the assay with Pseudomonas aeruginosa [11], against Escherichia coli [12], against Klebsiella pneumoniae [13], with Pseudomonas fluorescens [14] and against Klebsiella aerogenes [15] was 1000 µg/mL (≈ 4.97 mM) throughout. Moreover, the MIC in assay [16] is greater than 2000 µg/mL; in the assay on Enterococcus faecalis [17] it was greater than 2000 µg/mL; in the assay on Bacillus cereus [18] it was greater than 2000 µg/mL; against Staphylococcus aureus [19], greater than 2000 µg/mL; in the assay with Bacillus subtilis [22] it was 1000 µg/mL (≈ 4.97 mM).

The record behind these values is ChEMBL document CHEMBL3044670, “Aromatic sulfonyl hydrazides and sulfonyl hydrazones: antimicrobial activity and physical properties” (2013).
